Values of other authors as cited in US20040028772A1, “Method for preparation of chewing gum with customer acceptable taste” (priority 2000, published 2004).
Where a name gives a salt, the structure may show the parent alone.

Row | SMILES | water solubility (in words) | water-soluble / solubility in water
1 | CC1=C(/C=C/C(C)=C/C=C/C(C)=C/CO)C(C)(C)CCC1 [A-vitamin] | not water-soluble | –
2 | CC(=O)O.CC(=O)O.NC(=N\CCCCCC/N=C(N)/N=C(\N)Nc1ccc(Cl)cc1)/N=C(\N)Nc1ccc(Cl)cc1 [Chlorhexidine diacetate] | – | 1.9 g/100 ml
3 | N=C(NCCCCCCNC(=N)NC(=N)Nc1ccc(Cl)cc1)NC(=N)Nc1ccc(Cl)cc1.O=C(O)[C@H](O)[C@@H](O)[C@H](O)[C@H](O)CO.O=C(O)[C@H](O)[C@@H](O)[C@H](O)[C@H](O)CO [Chlorhexidine digluconat] | mixable | –
4 | [H]/N=C(\N/C(=N/[H])NCCCCCCNC(=N)NC(=N)Nc1ccc(Cl)cc1)Nc1ccc(Cl)cc1 [Chlorhexidine dihydrochloride] | – | 0.06 g/100 ml
5 | Clc1ccc(COC(Cn2ccnc2)c2ccc(Cl)cc2Cl)c(Cl)c1 (stereo not shown) [Miconazol] | – | < 0.001 g/100 ml
6 | C[C@]12CC[C@H]3[C@@H](CCC4=CC(=O)CC[C@@H]43)[C@@H]1CC[C@@H]2O [nandrolone] | heavily soluble | –
7 | CC(=O)Nc1ccc(O)cc1 [paracetamol] | – | 1.4 g/100 ml
